# Data published in patent publication US10207991B2, “Isoindoline compositions and methods for treating neurodegenerative disease” (priority 2014, dated 2019).
# “Also recorded” adds a separate entry of the source.
# Test system: caspase-3 activation in tumor cells
# Experiment: not given
# Settings: cited from earlier work
SMILES,caspase-3 activation,inhibition of caspase-3 activation
"COc1cc2c(cc1OC)CN(CCCCNC(=O)c1cc(C)ccc1OC)CC2 [RHM-1, N-[4-(3,4-dihydro-6,7-dimethoxyisoquinolin-2(1H)-yl)butyl]-2-methoxy-5-methylbenzamide]",do not induce caspase-3 activity,inhibits the activation
Fc1ccc(-n2cc(CCCCN3CCC4(CC3)OCc3ccccc34)c3ccccc32)cc1 [Siramesine],activate caspase-3; also recorded: induces caspase-3 activity,–
COc1ccc(C)cc1NC(=O)OC1C[C@H]2CCC[C@@H](C1)N2CCCCCCN (some centres unmarked) [SV-119],activate caspase-3,–

# Test system: MDA-MB-435 or MDA-MB231 or SKOV-3 cells
# Experiment: Tumor cell viability (MTS) assay
# Assay type: cell-based
# Settings: not given
# Description: The cytotoxicity of test compounds is determined using the CellTiter96 Aqueous One Solution Assay (Promega, Madison, Wis.). Briefly, MDA-MB-435 or MDA-MB231 or SKOV-3 cells were seeded in a 96-well plate at a density of 2000 cells/well on the day prior to treatment with sigma-2 receptor selective ligands. […] The plate is read at 490 nm in a Victor3 plate reader (PerkinElmer Life and Analytical Sciences, Shelton, Conn.). The EC^50 value, defined as the concentration of the sigma ligand required to inhibit cell viability by 50% relative to untreated cells, is determined from the dose response curve for each cell line. Siramesine is accepted as an agonist.
row,SMILES,Action
1,COc1ccc(C)cc1NC(=O)OC1C[C@H]2CCC[C@@H](C1)N2CCCCCCN (some centres unmarked) [SV-119],"Full agonist (If the EC50s of a sigma-2 ligand test compound is less than 2 fold of EC50 of siramesine, this sigma-2 ligand test compound is considered as an agonist)"

# Test system: caspase-3 activation in neurons
# Experiment: not given
# Settings: cited from earlier work
SMILES,block of caspase-3 activation by agonist SV-119,caspase-3 activation
"COc1cc2c(cc1OC)CN(CCCCNC(=O)c1cc(C)ccc1OC)CC2 [RHM-1, N-[4-(3,4-dihydro-6,7-dimethoxyisoquinolin-2(1H)-yl)butyl]-2-methoxy-5-methylbenzamide]",not able to block activation,do not induce caspase-3 activity
Fc1ccc(-n2cc(CCCCN3CCC4(CC3)OCc3ccccc34)c3ccccc32)cc1 [Siramesine],–,activate caspase-3
COc1ccc(C)cc1NC(=O)OC1C[C@H]2CCC[C@@H](C1)N2CCCCCCN (some centres unmarked) [SV-119],–,activate caspase-3

# Test system: not listed separately
# Experiment: Mouse liver microsome (MLM) stability
# Assay type: in vitro ADME
# Settings: not given
# Description: A first pharmacokinetic study was performed in microsomes of mice mouse liver microsomes, MLM) by a commercial contract research organization. The studies were performed according to Obach, R. S et al. (1997) J. Pharmacol. Exp. Ther., 283: 46-58, which is incorporated herein by reference.
row,SMILES,"Mouse liver microsomes, MLM t½ [min]"
1,C[C@H](CCc1ccc(O)c(OC(C)(C)C)c1)N1Cc2c(F)ccc(F)c2C1 [60A],5
2,CC(C)Oc1cc(CC[C@@H](C)N2Cc3cc4c(cc3C2)OCO4)ccc1O [compound 25],4
3,CC(C)Oc1cc(CCC(C)(C)N2Cc3cc4c(cc3C2)OCO4)ccc1O [compound 29],6
4,C[C@H](CCc1ccc(F)cc1)N1Cc2cccc(F)c2C1 [compound 21],7
5,COc1cc(CC[C@@H](C)N2Cc3cc(Cl)c(Cl)cc3C2)ccc1O [compound 3],21
6,COc1cc(CCC(C)(C)N2Cc3cc4c(cc3C2)OCO4)ccc1OCCO [compound 47],91
7,CC(C)Oc1ccc(CC[C@@H](C)N2Cc3cc4c(cc3C2)OCO4)cc1OC(C)C [compound 40],6
8,C[C@H](CCc1ccc(Cl)c(Cl)c1)N1Cc2ccc(C(F)(F)F)cc2C1 [compound 4],40
9,COc1cc(CC[C@@H](C)N2Cc3cccc(F)c3C2)ccc1O [compound 8],16
10,C[C@H](CCc1ccc(Cl)c(Cl)c1)N1Cc2ccc(F)cc2C1.Cl [compound 12],13
11,C[C@H](CCc1ccc(Cl)c(Cl)c1)N1Cc2ccc3ccccc3c2C1 [compound 19],25
12,COc1cc2c(cc1OC)CN([C@H](C)CCc1ccc(Cl)c(Cl)c1)C2 [compound 11],61
13,CC(C)Oc1cc(CC[C@@H](C)N2Cc3ccc(F)cc3C2)ccc1O [compound 37],5
14,C[C@H](CCc1ccc(Cl)c(Cl)c1)N1Cc2cccc(F)c2C1 [compound 9],12
15,CC(C)Oc1cc(CC[C@@H](C)N2Cc3cccc(F)c3C2)ccc1O [compound 26],4
16,CC(C)(CCc1ccc(F)cc1)N1Cc2ccc(F)cc2C1 [compound 35],9
17,COc1cc(CC[C@@H](C)N2Cc3ccc(Cl)cc3C2)ccc1O [compound 1],11
18,CC(C)Oc1cc(CCC(C)(C)N2Cc3cccc(F)c3C2)ccc1O [compound 28],4
19,CC(C)(CCc1ccc(F)cc1)N1Cc2cccc(F)c2C1 [compound 33],9
20,COc1cc(CCC(C)(C)N2Cc3ccc(F)cc3C2)ccc1OC(=O)N(C)C [compound 50],33
21,C[C@H](CCc1ccc(OC(=O)N(C)C)c(OC(F)(F)F)c1)N1Cc2cccc(F)c2C1 [compound 41],9
22,C[C@H](CCc1ccc(O)c(OC(F)(F)F)c1)N1Cc2cc3c(cc2C1)OCO3 [compound 24],5
23,COc1cc(CCC(C)N2Cc3ccc4ccccc4c3C2)ccc1O.Cl (centres unmarked) [compound 17],10

# Now from value to compound:
row,"Mouse liver microsomes, MLM t½ [min]",SMILES
1,9,CC(C)COc1cc(CCC(C)(C)N2Cc3cccc(C(=O)N4CCOCC4)c3C2)ccc1O [compound 90]
2,31,C[C@H](CCc1ccc(O)c(OC(C)(C)C)c1)N1Cc2ccc(S(C)(=O)=O)cc2C1 [compound 63]
3,12,CC(C)(CCc1ccc(O)c(OC(F)(F)F)c1)N1Cc2cccc(F)c2C1 [compound 54]
4,6,CC(C)COc1cc(CCC(C)(C)N2Cc3cccc(C(=O)N4CCN(C)CC4)c3C2)ccc1O [compound 91]
5,21,CC(C)(C)Oc1cc(CCC(C)(C)N2Cc3c(F)ccc(F)c3C2)ccc1O [compound 74]
6,28,CC(C)COc1cc(CCC(C)(C)N2Cc3cccc(F)c3C2)ccc1O [compound 88]
7,79,CC(C)Oc1cc(CCC(C)(C)N2Cc3ccc(S(C)(=O)=O)cc3C2)ccc1O [compound 70]
8,45,CC(C)(C)Oc1cc(CCC(C)(C)N2Cc3ccc(S(C)(=O)=O)cc3C2)ccc1O [compound 62]
9,39,CC(C)(CCc1ccc(O)c(OC(F)(F)F)c1)N1Cc2cccc(S(C)(=O)=O)c2C1 [compound 67]
10,17,CC(C)COc1cc(CCC(C)(C)N2Cc3cccc(C(=O)N(C)C)c3C2)ccc1O [compound 89]
11,19,COCCN(C)C(=O)c1cccc2c1CN(C(C)(C)CCc1ccc(O)c(OC)c1)C2 [compound 86]
12,10,CC(C)(C)Oc1cc(CCC(C)(C)N2Cc3cccc(S(C)(=O)=O)c3C2)ccc1O [compound 66]
13,34,CC(C)(CCc1ccc(O)c(OC(F)(F)F)c1)N1Cc2c(F)ccc(F)c2C1 [compound 55]
14,97,COc1cc(CC[C@@H](C)N2Cc3cc4c(cc3C2)OCO4)ccc1OCCO [compound 52]
15,26,CN(C)C(=O)c1cccc2c1CN(C(C)(C)CCc1ccc(O)c(OC(F)(F)F)c1)C2 [compound 57]
16,52,COc1cc(CCC(C)(C)N2Cc3cccc(S(C)(=O)=O)c3C2)ccc1O [compound 64]
17,27,COc1cc(CCC(C)(C)N2Cc3cccc(C(=O)N4CCN(C)CC4)c3C2)ccc1O [compound 82]

# Test system: neurons
# Experiment: not given
# Settings: 24 hours; cited from earlier work
row,SMILES,nuclear morphology / nuclear intensity compared to vehicle
1,"COc1cc2c(cc1OC)CN(CCCCNC(=O)c1cc(C)ccc1OC)CC2 [RHM-1, N-[4-(3,4-dihydro-6,7-dimethoxyisoquinolin-2(1H)-yl)butyl]-2-methoxy-5-methylbenzamide]",do not decrease nuclear intensity
2,Fc1ccc(-n2cc(CCCCN3CCC4(CC3)OCc3ccccc34)c3ccccc32)cc1 [Siramesine],cause significant abnormal nuclear morphology
3,COc1ccc(C)cc1NC(=O)OC1C[C@H]2CCC[C@@H](C1)N2CCCCCCN (some centres unmarked) [SV-119],cause significant abnormal nuclear morphology

# Molecular target: Sigma-2 receptor (Rattus norvegicus (Rat), UniProt Q5U3Y7)
# Experiment: Sigma-2 receptor competitive radioligand binding assay
# Settings: read-out: Sigma-2 Receptor Affinity, Ki
# Description: Radioligand binding assays for Sigma-1 receptors and Sigma-2 receptors were carried out by a commercial contract research organization. For Sigma-1 binding, various concentrations of test compounds from 100 μM to 1 nM were used to displace 8 nM [^3H](+)pentazocine from endogenous receptors on Jurkat cell membranes (Ganapathy M E et al. 1991, J Pharmacol. Exp. Ther. 289:251-260). 10 μM Haloperidol was used to define non-specific binding. For Sigma-2 receptors various concentrations of test compounds from 100 μM to 1 nM were used to displace 5 nM [^3H] […] (Bowen W D, et al. 1993, Mol. Neuropharmcol 3:117-126). 10 μM Haloperidol was used to define non-specific binding. […] Radioactivity on the dried filter discs was measured using a liquid scintillation analyzer (Tri-Carb 2900TR; PerkinElmer Life and Analytical Sciences). The displacement curves were plotted and the Ki values of the test ligands for the receptor subtypes were determined using GraphPad Prism (GraphPad Software Inc., San Diego, Calif.). The percentage specific binding was determined by dividing the difference between total bound (disintegrations per minute) and nonspecific bound (disintegrations per minute) by the total bound (disintegrations per minute).
# The affinity of candidate sigma-2 ligand compounds at sigma-1 and sigma-2 receptors was also determined by displacement of different known labeled sigma-2 or sigma-1 ligands. […]
# Sigma-2 receptor, sequence (Q5U3Y7 whole entry): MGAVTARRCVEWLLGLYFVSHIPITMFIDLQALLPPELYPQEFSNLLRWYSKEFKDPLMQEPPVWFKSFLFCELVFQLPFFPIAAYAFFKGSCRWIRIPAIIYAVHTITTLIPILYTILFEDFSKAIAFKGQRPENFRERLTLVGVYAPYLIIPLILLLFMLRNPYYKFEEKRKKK
row,Ki [µM],SMILES
1,> 10,CC(C)(C)Oc1cc(CCC(C)(C)N2Cc3cccc(C(=O)O)c3C2)ccc1O [compound 75]
